From article doi:10.1101/525329v1, “The large loop-8 insert in Saccharomyces cerevisiae kinesin-5 Cin8 is necessary and sufficient to promote noncanonical microtubule interactions” (biorxiv, 2019)

Experiments:
Assay in all cases: NADH-coupled steady-state ATPase assay
Eg5-CL8 = tested on: T1, Eg5-CL8; assay type: biochemical, Homo sapiens; settings: low ionic strength (7.5 mM KCl, 21 mM IS), 2 μM paclitaxel-stabilized bovine microtubules, 2 mM MgCl2, pH 7.2, 298 K; kcat from microtubule-dependent fit at 1 mM ATP
T1 construct: gene KIF11; monomeric Eg5 motor domain with 99-residue Cin8 loop-8 insert; bacterial expression, pET16b

Eg5-KL8 = tested on: T2, Eg5-KL8; assay type: biochemical, Homo sapiens; settings: high ionic strength (75 mM KCl, 88 mM IS), 10 μM paclitaxel-stabilized bovine microtubules, 2 mM MgCl2, pH 7.2, 298 K; kcat from microtubule-dependent fit; read-out: Km,ATP
T2 construct: gene KIF11; monomeric Eg5 motor domain with Kip1 loop-8 insert; bacterial expression, pET16b

Cin8-EL8 = tested on: T3, Cin8-EL8; assay type: biochemical, Saccharomyces cerevisiae; settings: low ionic strength (7.5 mM KCl, 21 mM IS), 5 μM paclitaxel-stabilized bovine microtubules, 2 mM MgCl2, pH 7.2, 298 K; kcat from microtubule-dependent fit; read-out: Km,ATP
T3 construct: monomeric Cin8 motor domain with Eg5 loop-8 insert; bacterial expression, pET32b

Nc1ncnc2c1ncn2[C@@H]1O[C@H](COP(=O)(O)OP(=O)(O)OP(=O)(O)O)[C@@H](O)[C@H]1O [ATP]
Km (Eg5-CL8): 40 ± 11 µM | Km (Eg5-KL8): 16 ± 4 µM | Km (Cin8-EL8): 39 ± 7 µM
